Measurements: the NIST ThermoML archive (doi:10.1021/je900596d)
± gives the expanded uncertainty stated by the source.

Conditions: Vibrating tube method

FC(F)=C(F)C(F)(F)F [hexafluoropropene]
Conditions	mass density [kg/m3]
348.12 K, 1780.6 kPa, Fluid (supercritical or subcritical phases)	126.81 ± 0.19
348.12 K, 1804.3 kPa, Fluid (supercritical or subcritical phases)	129.36 ± 0.2
348.12 K, 1829.7 kPa, Fluid (supercritical or subcritical phases)	132.19 ± 0.21
348.12 K, 1851.6 kPa, Fluid (supercritical or subcritical phases)	134.57 ± 0.21
348.12 K, 1872.9 kPa, Fluid (supercritical or subcritical phases)	137.09 ± 0.22
348.12 K, 1894.9 kPa, Fluid (supercritical or subcritical phases)	139.69 ± 0.23
348.12 K, 1917.6 kPa, Fluid (supercritical or subcritical phases)	142.36 ± 0.22
348.12 K, 1939.9 kPa, Fluid (supercritical or subcritical phases)	144.88 ± 0.23
348.12 K, 1967.9 kPa, Fluid (supercritical or subcritical phases)	148.35 ± 0.24
348.12 K, 1992.7 kPa, Fluid (supercritical or subcritical phases)	151.5 ± 0.24
348.12 K, 2016.1 kPa, Fluid (supercritical or subcritical phases)	154.47 ± 0.26
348.12 K, 2044.1 kPa, Fluid (supercritical or subcritical phases)	158.31 ± 0.27
348.12 K, 2068.5 kPa, Fluid (supercritical or subcritical phases)	161.51 ± 0.27
348.12 K, 2096.5 kPa, Fluid (supercritical or subcritical phases)	165.49 ± 0.28
348.12 K, 2143.5 kPa, Fluid (supercritical or subcritical phases)	172.38 ± 0.3
348.12 K, 2192.1 kPa, Fluid (supercritical or subcritical phases)	180.05 ± 0.33
348.12 K, 2212.1 kPa, Fluid (supercritical or subcritical phases)	183.28 ± 0.33
348.12 K, 2238.5 kPa, Fluid (supercritical or subcritical phases)	187.82 ± 0.35
348.12 K, 2266 kPa, Fluid (supercritical or subcritical phases)	192.69 ± 0.33
348.12 K, 2288.1 kPa, Fluid (supercritical or subcritical phases)	196.82 ± 0.33
348.12 K, 2310.2 kPa, Fluid (supercritical or subcritical phases)	201.01 ± 0.39
348.12 K, 2332.6 kPa, Fluid (supercritical or subcritical phases)	205.6 ± 0.41
348.12 K, 2354 kPa, Fluid (supercritical or subcritical phases)	210.08 ± 0.43
348.12 K, 2375.5 kPa, Fluid (supercritical or subcritical phases)	214.74 ± 0.45
348.12 K, 2397.3 kPa, Fluid (supercritical or subcritical phases)	219.85 ± 0.48
348.12 K, 2419.9 kPa, Fluid (supercritical or subcritical phases)	225.48 ± 0.51
348.12 K, 2442.3 kPa, Fluid (supercritical or subcritical phases)	231.34 ± 0.55
348.12 K, 2470.6 kPa, Fluid (supercritical or subcritical phases)	239.59 ± 0.58
348.12 K, 2472.8 kPa, Fluid (supercritical or subcritical phases)	240.22 ± 0.61
348.12 K, 2475.3 kPa, Fluid (supercritical or subcritical phases)	241.04 ± 0.62
348.12 K, 2478 kPa, Fluid (supercritical or subcritical phases)	241.76 ± 0.66
348.12 K, 2479.4 kPa, Fluid (supercritical or subcritical phases)	242.23 ± 0.66
348.12 K, 2481.5 kPa, Fluid (supercritical or subcritical phases)	242.88 ± 0.67
348.12 K, 2484.1 kPa, Fluid (supercritical or subcritical phases)	243.75 ± 0.72
348.12 K, 2485.5 kPa, Fluid (supercritical or subcritical phases)	244.17 ± 0.77
348.12 K, 2487.8 kPa, Fluid (supercritical or subcritical phases)	244.94 ± 1.6
348.12 K, 2490.1 kPa, Fluid (supercritical or subcritical phases)	245.8 ± 1.6
348.12 K, 2493.8 kPa, Fluid (supercritical or subcritical phases)	247.53 ± 1.7
348.12 K, 2495.7 kPa, Fluid (supercritical or subcritical phases)	248.38 ± 1.8
348.12 K, 2497.4 kPa, Fluid (supercritical or subcritical phases)	248.67 ± 1.7
348.12 K, 2498.8 kPa, Fluid (supercritical or subcritical phases)	250.42 ± 0.83
348.12 K, 2499.7 kPa, Fluid (supercritical or subcritical phases)	251.97 ± 0.98
348.12 K, 2500.9 kPa, Fluid (supercritical or subcritical phases)	254.86 ± 1.2
348.12 K, 2501.9 kPa, Fluid (supercritical or subcritical phases)	260.28 ± 1.8
348.12 K, 2502.8 kPa, Fluid (supercritical or subcritical phases)	268.19 ± 2.6
348.16 K, 2506.4 kPa, Liquid	959.6 ± 1.2
348.16 K, 2507.7 kPa, Liquid	959.78 ± 1.2
348.16 K, 2509 kPa, Liquid	959.97 ± 1.2
348.16 K, 2510.7 kPa, Liquid	960.12 ± 1.2
348.16 K, 2511.1 kPa, Liquid	960.28 ± 1.2
348.16 K, 2513.5 kPa, Liquid	960.38 ± 1.2
348.16 K, 2516.3 kPa, Liquid	960.72 ± 1.2
348.16 K, 2517 kPa, Liquid	960.83 ± 1.2
348.16 K, 2518.6 kPa, Liquid	961.02 ± 1.2
348.16 K, 2520.1 kPa, Liquid	961.1 ± 1.2
348.16 K, 2520.8 kPa, Liquid	961.16 ± 1.2
348.16 K, 2522.6 kPa, Liquid	961.35 ± 1.2
348.16 K, 2523.5 kPa, Liquid	961.75 ± 1.2
348.16 K, 2525.5 kPa, Liquid	961.71 ± 1.2
348.16 K, 2526.1 kPa, Liquid	961.8 ± 1.2
348.16 K, 2530 kPa, Liquid	962.41 ± 1.2
348.16 K, 2532.2 kPa, Liquid	962.81 ± 1.2
348.16 K, 2535.5 kPa, Liquid	963.11 ± 1.2
348.16 K, 2538.4 kPa, Liquid	963.1 ± 1.2
348.16 K, 2542.3 kPa, Liquid	963.6 ± 1.2
348.16 K, 2544.8 kPa, Liquid	963.72 ± 1.2
348.16 K, 2547.3 kPa, Liquid	963.99 ± 1.2
348.16 K, 2549.5 kPa, Liquid	964.46 ± 1.1
348.16 K, 2554.5 kPa, Liquid	964.95 ± 1.1
348.16 K, 2561 kPa, Liquid	965.66 ± 1.1
348.16 K, 2568.5 kPa, Liquid	966.39 ± 1.1
348.16 K, 2574.8 kPa, Liquid	967.01 ± 1.1
348.16 K, 2581.7 kPa, Liquid	967.68 ± 1.1
348.16 K, 2588.5 kPa, Liquid	968.36 ± 1.1
348.16 K, 2595 kPa, Liquid	968.97 ± 1.1
348.16 K, 2601.2 kPa, Liquid	969.69 ± 1.1
348.16 K, 2614.7 kPa, Liquid	970.9 ± 1.1
348.16 K, 2627.6 kPa, Liquid	972.33 ± 1.1
348.16 K, 2633.8 kPa, Liquid	972.9 ± 1.1
348.16 K, 2640.7 kPa, Liquid	973.53 ± 1.1
348.16 K, 2654.7 kPa, Liquid	974.76 ± 1.1
348.16 K, 2667.6 kPa, Liquid	976.02 ± 1.1
348.16 K, 2680.1 kPa, Liquid	977.1 ± 1.1
348.16 K, 2693.1 kPa, Liquid	978.18 ± 1.1
348.16 K, 2706.1 kPa, Liquid	979.32 ± 1.1
348.16 K, 2718.8 kPa, Liquid	980.44 ± 1.2
348.16 K, 2730.9 kPa, Liquid	981.5 ± 1.2
348.16 K, 2744.5 kPa, Liquid	982.55 ± 1.2
348.16 K, 2756.9 kPa, Liquid	983.71 ± 1.2
348.16 K, 2770.2 kPa, Liquid	984.59 ± 1.2
348.16 K, 2782.7 kPa, Liquid	985.9 ± 1.2
348.16 K, 2796.7 kPa, Liquid	986.93 ± 1.2
348.16 K, 2809.4 kPa, Liquid	987.97 ± 1.2
348.16 K, 2835.1 kPa, Liquid	989.69 ± 1.2
348.16 K, 2847.5 kPa, Liquid	990.63 ± 1.2
348.16 K, 2861.9 kPa, Liquid	991.98 ± 1.2
348.16 K, 2875.4 kPa, Liquid	992.69 ± 1.2
348.16 K, 2888.5 kPa, Liquid	993.69 ± 1.2
348.16 K, 2902.4 kPa, Liquid	994.77 ± 1.2
348.16 K, 2923.1 kPa, Liquid	996.32 ± 1.2
348.16 K, 2943.1 kPa, Liquid	997.63 ± 1.1
348.16 K, 2969.1 kPa, Liquid	999.28 ± 1.2
348.16 K, 2994.8 kPa, Liquid	1001.06 ± 1.2
348.16 K, 3015.4 kPa, Liquid	1002.63 ± 1.2
348.16 K, 3036.5 kPa, Liquid	1004.18 ± 1.1
348.16 K, 3061.5 kPa, Liquid	1005.54 ± 1.2
348.16 K, 3081.9 kPa, Liquid	1006.76 ± 1.2
348.16 K, 3102.2 kPa, Liquid	1008.02 ± 1.1
348.16 K, 3129.1 kPa, Liquid	1009.6 ± 1.1
348.16 K, 3135.2 kPa, Liquid	1009.88 ± 1.1
348.16 K, 3142.1 kPa, Liquid	1010.13 ± 1.1
348.16 K, 3154.2 kPa, Liquid	1010.88 ± 1.1
348.16 K, 3176.2 kPa, Liquid	1012.35 ± 1.1
348.16 K, 3202.5 kPa, Liquid	1013.88 ± 1.1
348.16 K, 3223.6 kPa, Liquid	1015.07 ± 1.1
348.16 K, 3244.1 kPa, Liquid	1016.31 ± 1.1
348.16 K, 3266.6 kPa, Liquid	1017.56 ± 1.1
348.16 K, 3287 kPa, Liquid	1018.73 ± 1.1
348.16 K, 3310.2 kPa, Liquid	1020.02 ± 1.1
348.16 K, 3316.2 kPa, Liquid	1020.28 ± 1.1
348.16 K, 3323.1 kPa, Liquid	1020.54 ± 1.1
348.16 K, 3330.6 kPa, Liquid	1020.95 ± 1.1
348.16 K, 3337.3 kPa, Liquid	1021.47 ± 1.1
348.16 K, 3343.7 kPa, Liquid	1021.72 ± 1.1
348.16 K, 3351.1 kPa, Liquid	1022.04 ± 1.1
348.16 K, 3359.3 kPa, Liquid	1022.61 ± 1.1
348.16 K, 3365.4 kPa, Liquid	1022.8 ± 1.1
348.16 K, 3373.8 kPa, Liquid	1023.35 ± 1.1
348.16 K, 3380 kPa, Liquid	1023.59 ± 1.1
348.16 K, 3386.2 kPa, Liquid	1023.86 ± 1.1
348.16 K, 3392.5 kPa, Liquid	1024.46 ± 1.1
348.16 K, 3400.2 kPa, Liquid	1024.64 ± 1.1
348.16 K, 3423.6 kPa, Liquid	1025.65 ± 1.1
